Data as given in EP0409176B1, “Method and materials for detecting pathology from alterations in estrogen metabolism” (THE ROCKEFELLER UNIVERSITY, priority 1989, dated 1991).

Tests used:
[1] = tested on: 2OHE1 antiserum; assay: Radioimmunoassay cross-reactivity of the anti-2OHE1 antiserum; type: binding; conditions: antiserum raised against bovine serum albumin linked to 2-hydroxyestrone 17-carboxymethyloxime
From the text: Antibodies to 16α-OHE1, E2 and E3 were raised as described previously (Fishman, J., et al., SCIENCE, 204:1089-1091 (1979); Ikegawa, S., et al., J. STEROID BIOCHEM., 18:329-332 (1983)), while the anti-2OHE1 antiserum was a gift of Dr. Kanbegawa (Teikyo University, Japan) and was raised against bovine serum albumin linked to 2-hydroxyestrone 17-carboxymethyloxime. Cross-reactivities of the 2OHE1 antiserum with E1, E2 and E3, 16αOHE1, 2MeOE1, and 2-hydroxyestradiol (2OHE2) were 1.3%, 0.6%, 0.01%, 0.03%, 0.11% and 1.7%, respectively.
Each urine sample (1 or 2 mL) contained approximately 3000 dpm of […] steroid used to determine recovery, and was applied to a C18 Sep-pak cartridge followed by elution with 5 mL of methanol. The eluate was dried in vacuo and hydrolyzed with Glusulase for 12 h at 37°C. The hydrolyzed steroids were again extracted on a C18 Sep-pak cartridge and eluted with 5 mL of methanol. Aliquots of this final eluate were taken for determination of recovery (averaging 90-95%) and duplicate radioimmunoassay (100 µL). In order to prevent auto-oxidation of catecholestrogens, ascorbic acid (1%) was used in all stages of the assay. Radiolabeled steroids and antisera were incubated with the specimens overnight at 4°C, and radioactivity was measured with a Packard model 3000 scintillation counter. Estrogen levels are expressed relative to urinary creatinine concentration. Statistical analysis was performed with an unpaired t-test. Unless otherwise specified, all values are reported as means ± SEM.

[2] = tested on: 16α-hydroxylation of estradiol; conditions: 800 mg per dose twice daily oral for two weeks; nine normal male volunteers; radiometric analysis; cited from earlier work
[3] = tested on: cytochrome P-450-dependent metabolism of estradiol; conditions: 800 mg per dose twice daily oral for two weeks; nine normal male volunteers; P<0.04; cited from earlier work
[4] = tested on: cytochrome P-450-dependent metabolism of estradiol; conditions: cited from earlier work
[5] = tested on: estradiol 2-hydroxylation; assay: Urinary estrogen metabolites and ratios before and after I3C or high fiber diet; type: in vivo, humans
Protocol: (§1) In this study by two of the inventors herein, which study was just recently published, certain dietary indoles were examined for their induction of hepatic estradiol 2-hydroxylation. In particular, indole-3-carbinol (I3C) was administered to humans at a rate of 500 mg daily for one week.
In conjunction with this study, certain comparative data were developed between the administration of I3C to women and men, and the administration of a high fiber diet to women. The comparative results are presented in Table 6A, B and C below, wherein Table 6A represents the data from women taking I3C, Table 6B represents the data respecting the women who were placed on a high fiber diet, and Table 6C represents the data gathered from the sample of men who were administered I3C.

[6] = tested on: hepatic estradiol 2-hydroxylation; assay: Extent of estradiol 2-hydroxylation after indole-3-carbinol administration; type: in vivo; conditions: 500 mg daily for one week, humans
Protocol: as §1

[7] = tested on: estradiol hydroxylation at both the C-2 and C-16α sites; conditions: cited from earlier work
[8] = after thyroxine administration versus baseline

## C[C@]12CC[C@@H]3c4cc(O)c(O)cc4CC[C@H]3[C@@H]1CC[C@@H]2O [2-hydroxyestradiol]
[1]
  Cross-reactivities of the 2OHE1 antiserum: 1.7%

## COc1cc2c(cc1O)CC[C@@H]1[C@@H]2CC[C@]2(C)C(=O)CC[C@@H]12 [2MeOE1, 2-methoxyestrone]
[1]
  Cross-reactivities of the 2OHE1 antiserum: 0.11%

## C[C@]12CC[C@@H]3c4ccc(O)cc4CC[C@H]3[C@@H]1C[C@@H](O)C2=O [16αOHE1, 16α-hydroxyestrone]
[1]
  Cross-reactivities of the 2OHE1 antiserum: 0.03%

## CN/C(=N/CCSCc1nc[nH]c1C)NC#N [Cimetidine]
[2]
  16α-hydroxylation of estradiol: unaffected
[3]
  serum concentration of estradiol increased: approximately 20%
[4]; 800 mg per dose twice daily oral for two weeks, nine normal male volunteers, P<0.0002
  urinary excretion of 2-hydroxyestrone decreased: approximately 25%
[4]; After Cimetidine 800 mg orally twice a day for 14 days, sum of estrone, estradiol, estriol, 16α-hydroxyestrone, 2-hydroxyestrone, n=9, before 10.7 ± 1.1, P 0.02
  Urinary Excretion of Total estrogens: 9.9 ± 0.9 nmol/nmol of creatinine
[4]; After Cimetidine 800 mg orally twice a day for 14 days, timed overnight urine, mean ± SEM, n=9, before 1.08 ± 0.11, NS
  Urinary Excretion of 16α-Hydroxyestrone: 1.05 ± 0.08 nmol/nmol of creatinine
[4]; After Cimetidine 800 mg orally twice a day for 14 days, timed overnight urine, mean ± SEM, n=9, before 1.28 ± 0.15, NS
  Urinary Excretion of Estradiol: 1.25 ± 0.10 nmol/nmol of creatinine
[4]; After Cimetidine 800 mg orally twice a day for 14 days, timed overnight urine, mean ± SEM, n=9, before 1.71 ± 0.20, P 0.0002
  Urinary Excretion of 2-Hydroxyestrone: 1.27 ± 0.19 nmol/nmol of creatinine
[4]; After Cimetidine 800 mg orally twice a day for 14 days, timed overnight urine, mean ± SEM, n=9, before 3.80 ± 0.34, P 0.03
  Urinary Excretion of Estrone: 3.32 ± 0.26 nmol/nmol of creatinine
[4]; after Cimetidine treatment
  ratio of 2-hydroxyestrone to estriol reduced: approximately 40%
[4]; urinary ratio After Cimetidine 800 mg orally twice a day for 14 days, mean ± SEM, n=9, before 0.74 ± 0.18, P 0.015
  2-Hydroxyestrone/estriol: 0.47 ± 0.10

## C[C@]12CC[C@@H]3c4ccc(O)cc4CC[C@H]3[C@@H]1C[C@@H](O)[C@@H]2O [E3, estriol]
[1]
  Cross-reactivities of the 2OHE1 antiserum: 0.01%

## OCc1c[nH]c2ccccc12 [I3C, indole-3-carbinol]
[5]; Men Taking I3C (N=7), Post, Pre 1.06 ± 0.11, P <0.02
  [2OHE1]/[E3]: 2.04 ± 0.35
[5]; Men Taking I3C (N=7), Post, Pre 6.4 ± 1.8, P <0.006
  [E3]: 4.2 ± 1.3
[5]; Men Taking I3C (N=7), Post, Pre 6.6 ± 2.3, NS
  [2OHE1]: 8.2 ± 3.5
[5]; Men Taking I3C (N=7), Post, Pre 8.4 ± 1.8, NS
  [E1]: 8.9 ± 2.3
[5]; Women (N=5), Post, Pre 1.04 ± 0.20, NS
  [E3]/[E1]: 0.74 ± 0.11
[5]; Women (N=5), Post, Pre 1.15 ± 0.24, P <0.05
  [2OHE1]/[E1]: 1.53 ± 0.20
[5]; Women (N=5), Post, Pre 1.27 ± 0.30, P <0.005
  [2OHE1]/[E3]: 2.35 ± 0.50
[5]; conclusion from Tables 6A-C
  induction of estradiol 2-hydroxylation: potent inducers
[6]
  extent of estradiol 2-hydroxylation: significantly increased

## N[C@@H](Cc1cc(I)c(Oc2cc(I)c(O)c(I)c2)c(I)c1)C(=O)O [Thyroxine, thyroxine]
[7]; Post: following two weeks of thyroxine (4.3 mcg/kg/d), mean ± SEM, Pre 2.07 ± 0.24, NS
  Urinary 16αOHE1: 2.24 ± 0.17 µg creatinine
[7]; Post: following two weeks of thyroxine (4.3 mcg/kg/d), mean ± SEM, Pre 2.78 ± 0.23, NS
  Urinary E2: 3.03 ± 0.27 µg creatinine
[7]; Post: following two weeks of thyroxine (4.3 mcg/kg/d), mean ± SEM, Pre 2.88 ± 0.32, P 0.01
  Urinary 2OHE1: 5.30 ± 0.85 µg creatinine
[7]; Post: following two weeks of thyroxine (4.3 mcg/kg/d), mean ± SEM, Pre 5.84 ± 0.88, NS
  Urinary E3: 5.37 ± 0.78 µg creatinine
[7]; Post: following two weeks of thyroxine (4.3 mcg/kg/d), mean ± SEM, Pre 7.36 ± 0.39, NS
  Urinary E1: 7.30 ± 0.74 µg creatinine
[7]; Post: following two weeks of thyroxine (4.3 mcg/kg/d), mean ± SEM, Pre 20.93 ± 1.58, NS
  Urinary Total estrogens: 23.24 ± 2.41. µg creatinine
[7]; [8]
  index [2OHE1]/[E3] change after thyroxine administration: nearly doubled
  urinary 2-hydroxyestrone after thyroxine administration: significantly greater
[7]; urinary ratio, Post: following two weeks of thyroxine (4.3 mcg/kg/d), Pre 0.56 ± 0.09, P 0.01
  [2OHE1]/[E3]: 1.05 ± 0.14
